This data set in a line: Partition coefficient (logP). The data set is classed as physicochemical. The note with it: octanol/water.

These results are taken from ChEMBL document CHEMBL1121958, “A consideration for structure-taste correlations of perillartines using pattern-recognition techniques” (J Med Chem, 1982).

The structures appear in SMILES notation.

On to `O/N=C/C1=CC=CCC1`, for which the logP was 1.48.
The molecule `C=C(C)C1CC=C(/C=N/O)CC1` (configuration not stated) registered a lipophilicity (logP) of 2.58.
In the case of `COCC1CCC=C(/C=N/O)C1` (configuration not stated) it was 0.8; in that of `COC(C)C1CCC=C(/C=N/O)C1` (configuration not stated), 1.4; in that of `COC(C)C1=CCC(/C=N/O)=CC1` (configuration not stated), 1.1.
In the case of `O/N=C/C1=CCCOC1` it was -0.72; in that of `COC(C)(CO)C1CC=C(/C=N/O)CC1` (configuration not stated), -0.1; in that of `O/N=C/C1=CCSCC1`, 0.34.
In the case of `COCC(C)(OC)C1CC=C(/C=N/O)CC1` (configuration not stated) it was 0.72; in that of `O/N=C/C1=CCOCC1`, -0.72; in that of `C=CC1CC=C(/C=N/O)CC1` (configuration not stated), 2.28.
Regarding `COCC(C)(O)C1CC=C(/C=N/O)CC1` (configuration not stated), the log partition coefficient (logP) was -0.1.
`CC1=CC=C(/C=N/O)CC1` registered a logP of 0.78.
To `COC(C)C1=CC=C(/C=N/O)CC1` (configuration not stated) belongs 1.1; to `C/C=C(C)/C=N/O`, 0.87; to `COCC1=CCC(/C=N/O)=CC1`, 0.8.
In the case of `COC(C)C1=CCC=C(/C=N/O)C1` (configuration not stated) it was 1.1; in that of `O/N=C/C1=CCCCC1`, 1.48.
Molecule `COC(C)C1CC=C(/C=N/O)CC1` (configuration not stated) displayed a logP of 1.4.
Regarding `O/N=C/C1=CC2C=CC1CC2` (configuration not stated), the logP was 1.9.
As to `COCC1CC=C(/C=N/O)CC1` (configuration not stated), the logP is 1.1.
In the case of `CC(O)(CO)C1CC=C(/C=N/O)CC1` (configuration not stated) it was -0.92.
